Reference: patent US9340577B2, “HLA binding motifs and peptides and their uses” (priority 1992, dated 2016)
Entries after “also recorded” stand apart in the source; their conditions may differ. Where two headings read alike, the source gives them in different places. Marks after values point to notes of the source that are not given here. No end group written: not given here.

Legend:
[1] = tested on: peptide-coated Jurkat A2/Kb target cells; parameters: species or system mice; conditions: mouse, in vivo
A2.1 HLA molecules = A2.1 HLA molecules (Homo sapiens, UniProt P04439, D140Y/D185E/D98H/E176V/E277Q/G131W/G231S/I119V/I121R/I166T/I218V/L300P/L318F/N151K/N90K/P208A/P217A/Q86G/Q94H/R138H/R169H/T345S); type: binding; parameters: A*0201 / A2.1 Binding / A2 Bind. / A2 / A2.1 (binding capacity): scale not given here
B*5401 = B*5401 (Homo sapiens, UniProt P01889, A329T/C349S/D138N/D201E/E176V/E187T/E204Q/E69G/I76V/K202T/L119W/R155S/R180L/S121T/S35A/S48A/V127L/V306I/V36M/Y140L); assay: biochemical
B*5301 = B*5301 (Homo sapiens, UniProt P01889, A329T/A93T/A95T/C349S/D201E/D98Y/E176V/E187L/E204Q/E69T/G107R/I218V/K202T/L105A/L119I/N104I/Q94N/R106L/R155S/R180L/S101N/S121R/S35A/S48A/T118I/V127L/V306I/V36M/Y140S/Y91F); assay: biochemical
B*0701 = B*0701 (Homo sapiens, UniProt P01889); assay: biochemical
B*3501 = B*3501 (Homo sapiens, UniProt P01889, A329T/A93T/A95T/C349S/D201E/D98Y/E176V/E187L/E204Q/E69T/I218V/K202T/L119I/Q94N/R155S/R180L/S121R/S35A/S48A/T118I/V127L/V306I/V36M/Y140S/Y91F); assay: biochemical
HLA-A*0201 (HLA-A2.1) = HLA-A*0201 (HLA-A2.1) (Homo sapiens, UniProt P04439, D140Y/D185E/D98H/E176V/E277Q/G131W/G231S/I119V/I121R/I166T/I218V/L300P/L318F/N151K/N90K/P208A/P217A/Q86G/Q94H/R138H/R169H/T345S); assay: biochemical; type: binding
A*2601 = A*2601 (Homo sapiens, UniProt P04439, A114D/A173T/A270S/D101N/D185E/E277Q/E87N/F33Y/G231S/I121R/I218V/K168Q/L180W/L300P/L318F/P208A/P217A/Q86R/Q94H/R138Q/S129P/T187R/T323A/T345S/V100A/V358M); assay: biochemical; type: binding
A*3002 = A*3002 (Homo sapiens, UniProt P04439, D101N/D140H/D185E/E176R/F33S/G80R/H175R/K168Q/Q94H/R138E/R41S/V100E); assay: biochemical; type: binding
A*2902 = A*2902 (Homo sapiens, UniProt P04439, A270S/D101N/D185E/E176V/E277Q/E87Q/F33T/G231S/H175R/I121M/I218V/I322F/K168Q/L300P/L318F/M331R/P208A/P217A/Q86L/T323A/T345S/V100A/V358M); assay: biochemical; type: binding
HLA-A1 (A*0101) = HLA-A1 (A*0101) (Homo sapiens, UniProt P04439, A114D/A174V/A182V/D101N/D185E/E176A/E190D/L180R/Q94H/R68K/S129P/T187R/V100A/V91M/W191G); assay: biochemical; type: binding
[2] = B*0701 (nM), Binding of peptides to B7-like supermotif alleles, Table 36

E7.86/1088.01 (TLGIVCPI)
Immunogenicity Experiment 1 [1]: 94.4 (1.34) Lytic Units | Immunogenicity Experiment 2 [1]: 54.2 (1.43)* Lytic Units | A2.1 Binding (A2.1 HLA molecules): 0.15

CSCC[C@H](NC(=O)[C@H](CC(C)C)NC(=O)[C@H](C)NC(=O)[C@@H]1CCCN1C(=O)[C@@H](N)Cc1ccc(O)cc1)C(=O)N1CCC[C@H]1C(=O)N[C@@H](CC(C)C)C(=O)N[C@@H](Cc1ccc(O)cc1)C(=O)N[C@@H](C)C(=O)O [16.008]
IC50 (B*5401): 0.0008 µM | IC50 (B*5301; B*5301 (nM)): 2580 nM | IC50 (B*0701; [2]): 524 nM

E7.73/1088.13 (HVDIRTLED)
Immunogenicity Experiment 1 [1]: — (key: —: a dash indicates _Lytic Units with a geometric mean ≦0.2) | A2.1 Binding (A2.1 HLA molecules): 0

WPLYGNEGL [15.041]
IC50 (B*5301; B*5301 (nM)): 6890 nM | IC50 (B*0701; [2]): 859 nM

E7.12/1088.09 (MLDLQPETT)
Immunogenicity Experiment 1 [1]: — (key: —: a dash indicates _Lytic Units with a geometric mean ≦0.2) | Immunogenicity Experiment 2 [1]: — (key: —: a dash indicates _Lytic Units with a geometric mean ≦0.2) | A2.1 Binding (A2.1 HLA molecules): 0.0028

TLGIVCPI
CTL response in HLA-A2.1 transgenic mice [1]: most immunogenic; also recorded: strongest epitope

CC(C)C[C@H](NC(=O)[C@H](CO)NC(=O)[C@H](CCCNC(=N)N)NC(=O)[C@H](CC(C)C)NC(=O)[C@H](CO)NC(=O)[C@H](C)NC(=O)[C@H](CC(C)C)NC(=O)[C@@H]1CCCN1C(=O)[C@@H](N)Cc1ccc(O)cc1)C(=O)N[C@@H](Cc1ccccc1)C(=O)O [15.268]
IC50 (B*3501): 0.48 µM | IC50 (B*5301; B*5301 (nM)): 150 nM

EPIVGAETF [15.091]
IC50 (B*5301; B*5301 (nM)): 4770 nM

CC(C)C[C@H](NC(=O)[C@H](CC(=O)O)NC(=O)[C@@H]1CCCN1C(=O)[C@@H](N)Cc1ccccc1)C(=O)N[C@@H](CCC(=O)O)C(=O)N[C@@H](CO)C(=O)N[C@@H](CCC(=O)O)C(=O)N[C@@H](Cc1ccccc1)C(=O)N[C@@H](CCC(N)=O)C(=O)N[C@@H](C)C(=O)O [16.199]
IC50 (B*3501): 5.76 µM | IC50 (B*5401): 0.297 µM

CC[C@H](C)[C@H](NC(=O)[C@H](CC(C)C)NC(=O)[C@H](C)NC(=O)[C@H](CCCNC(=N)N)NC(=O)[C@@H]1CCCN1C(=O)CN)C(=O)N[C@@H](CCC(=O)O)C(=O)N[C@H](C(=O)N[C@@H](CO)C(=O)N[C@@H](Cc1ccc(O)cc1)C(=O)O)[C@@H](C)O [15.288]
IC50 (B*3501): 24 µM | IC50 (B*0701; B*0701 (nM), binding of B7-like supermotif 10-mer peptides to purified HLA-B*0701): 6750 nM

CC[C@H](C)[C@H](NC(=O)[C@H](CC(C)C)NC(=O)[C@H](CC(C)C)NC(=O)CNC(=O)[C@@H](NC(=O)[C@H](CCCCN)NC(=O)[C@@H]1CCCN1C(=O)[C@@H](N)CCSC)[C@@H](C)O)C(=O)N[C@H](C(=O)N[C@H](C(=O)O)C(C)C)[C@@H](C)CC [15.283]
IC50 (B*3501): 24 µM | IC50 (B*5401): 0.17 µM | IC50 (B*0701; [2]): 18000 nM

E6.5211088.05 (FAFRDLCIV) [Peptide E6.5211088.05]
Immunogenicity Experiment 1 [1]: — (key: —: a dash indicates _Lytic Units with a geometric mean ≦0.2) | A2.1 Binding (A2.1 HLA molecules): 0.057

SPLLLSTTEQ [15.226]
IC50 (B*5301): 55 nM | IC50 (B*0701): 21600 nM

CC[C@H](C)[C@H](NC(=O)[C@@H](NC(=O)[C@H](Cc1ccccc1)NC(=O)[C@H](CC(N)=O)NC(=O)[C@@H](NC(=O)[C@@H](NC(=O)[C@H](CS)NC(=O)[C@@H]1CCCN1C(=O)[C@@H](N)Cc1ccc(O)cc1)[C@@H](C)O)C(C)C)[C@@H](C)O)C(=O)O [15.047]
IC50 (B*5401): 0.089 µM | IC50 (B*5301; B*5301 (nM)): 102 nM

EPIVGAETFY [15.271]
IC50 (B*3501): 9 µM

RPQVPLRPM [15.067]
IC50 (B*3501): 5.76 µM | IC50 (B*0701; [2]): 3.3 nM

CC[C@H](C)[C@H](NC(=O)[C@@H]1CCCN1C(=O)[C@@H](N)CCCCN)C(=O)N[C@H](C(=O)N[C@@H](CCC(N)=O)C(=O)N[C@@H](Cc1ccc(O)cc1)C(=O)N[C@@H](CC(=O)O)C(=O)N[C@@H](CC(N)=O)C(=O)N[C@@H](Cc1ccccc1)C(=O)O)C(C)C [15.185]
IC50 (B*5301; B*5301 (nM)): 2040 nM

TLGIVXPI
change of binding affinity for all A2 alleles versus parent (HLA-A*0201 (HLA-A2.1)): greatly increased | crossreactivity of induced CTLs with wild type sequence [1]: fully crossreactive with the wild type sequence | immunogenicity in A2/Kb transgenic mice versus wild type peptide [1]: more potent immunogen

CC(C)C[C@H](NC(=O)[C@@H](NC(=O)[C@H](CCC(=O)O)NC(=O)[C@H](CC(=O)O)NC(=O)[C@H](Cc1ccccc1)NC(=O)[C@@H]1CCCN1C(=O)[C@H](C)NC(=O)[C@@H]1CCCN1C(=O)[C@@H](N)CCC(=O)O)[C@@H](C)O)C(=O)O [15.181]
IC50 (B*3501): 2.94 µM | IC50 (B*5301; B*5301 (nM)): 1620 nM

TPVNSQLGNI [15.246]
IC50 (B*5301): 16900 nM

YTMAGVGSPY [Peptide 9012.0153]
IC50 (A*2601): 0.00032 µM | IC50 (A*3002): 0.0035 µM | IC50 (A*2902): 0.0022 µM | IC50 (HLA-A1 (A*0101)): 0.0098 µM

E7.11/1088.04 (YMLDLQPET)
Immunogenicity Experiment 1 [1]: 5.0 (3.70) Lytic Units | Immunogenicity Experiment 2 [1]: 2.6 (15.5) Lytic Units | A2.1 Binding (A2.1 HLA molecules): 0.14

GTDCTTIHYNY [Peptide 9012.0200]
IC50 (A*2601): 4.86 µM | IC50 (A*3002): 0.076 µM | IC50 (A*2902): 0.959 µM | IC50 (HLA-A1 (A*0101)): 0.029 µM

EPQNEIPVDL [15.279]
IC50 (B*3501): 16 µM

LLMGTLGIV
CTL response in HLA-A2.1 transgenic mice [1]: most immunogenic

ETVPISHLY [Peptide 9012.0132]
IC50 (A*2601): 0.00035 µM | IC50 (A*3002): 0.0022 µM | IC50 (A*2902): 0.869 µM | IC50 (HLA-A1 (A*0101)): 0.234 µM

FTTCLGLSY [Peptide 9012.0136]
IC50 (A*2601): 0.0013 µM | IC50 (A*3002): 1.3 µM | IC50 (A*2902): 0.0022 µM | IC50 (HLA-A1 (A*0101)): 0.015 µM

YVMAGVGSPY [Peptide 9012.0152]
IC50 (A*2601): 0.0017 µM | IC50 (A*3002): 0.012 µM | IC50 (A*2902): 0.0034 µM | IC50 (HLA-A1 (A*0101)): 0.122 µM

YMLDLQPETT
CTL response in HLA-A2.1 transgenic mice [1]: most immunogenic

CC(C)C[C@H](NC(=O)[C@@H]1CCCN1C(=O)[C@H](Cc1c[nH]c2ccccc12)NC(=O)[C@@H]1CCCN1C(=O)[C@H](Cc1ccc(O)cc1)NC(=O)CNC(=O)[C@@H]1CCCN1C(=O)[C@@H](N)CCC(N)=O)C(=O)N[C@@H](Cc1ccc(O)cc1)C(=O)O [15.040]
IC50 (B*3501): 6.55 µM

TIHDIILECV
CTL response in HLA-A2.1 transgenic mice [1]: most immunogenic

E7.711088.07 (TLHEYMLDL) [Peptide E7.711088.07]
Immunogenicity Experiment 1 [1]: — (key: —: a dash indicates _Lytic Units with a geometric mean ≦0.2) | A2.1 Binding (A2.1 HLA molecules): 0.0070

CC[C@H](C)[C@H](NC(=O)[C@H](Cc1c[nH]cn1)NC(=O)[C@@H]1CCCN1C(=O)[C@@H](N)CCC(=O)O)C(=O)N[C@@H](CO)C(=O)N[C@@H](Cc1ccc(O)cc1)C(=O)N1CCC[C@H]1C(=O)N1CCC[C@H]1C(=O)N[C@@H](CC(C)C)C(=O)O [15.117]
IC50 (B*3501): 8 µM | IC50 (B*0701; [2]): 50 nM

E6.29/1088.10 (TIHDIILECV)
Immunogenicity Experiment 1 [1]: 22.13 (3.71) Lytic Units | Immunogenicity Experiment 2 [1]: 0.4 (3.52) Lytic Units | A2.1 Binding (A2.1 HLA molecules): 0.021

E7.85/1088.08 (GTLGIVCPI)
Immunogenicity Experiment 2 [1]: —** (key: —: a dash indicates _Lytic Units with a geometric mean ≦0.2) | A2.1 Binding (A2.1 HLA molecules): 0.021

CC[C@H](C)[C@H](NC(=O)[C@H](Cc1ccc(O)cc1)NC(=O)[C@H](CC(C)C)NC(=O)[C@H](Cc1c[nH]cn1)NC(=O)CNC(=O)[C@@H](NC(=O)[C@@H]1CCCN1C(=O)[C@@H](N)CC(=O)O)[C@@H](C)CC)C(=O)N[C@@H](Cc1ccccc1)C(=O)N[C@@H](C)C(=O)O [16.201]
IC50 (B*5401): 0.359 µM | IC50 (B*5301; B*5301 (nM)): 20700 nM

CC[C@H](C)[C@H](NC(=O)[C@H](Cc1ccc(O)cc1)NC(=O)[C@H](CC(C)C)NC(=O)[C@H](Cc1c[nH]cn1)NC(=O)CNC(=O)[C@@H](NC(=O)[C@@H]1CCCN1C(=O)[C@@H](N)CC(=O)O)[C@@H](C)CC)C(=O)N[C@@H](Cc1ccccc1)C(=O)O [15.138]
IC50 (B*5301; B*5301 (nM)): 2550 nM
